Test results as given in BindingDB's records for doi:10.1021/jm00007a020 (Eastern Michigan University, 1995).
Square brackets hold non-standard residues; d marks the D form. Peptide text beside a SMILES is read from it. Ala(4-thiazolyl) = N[C@@H](Cc1cscn1)C(=O)O; 2Pal = N[C@@H](Cc1ccccn1)C(=O)O; 3Pal = N[C@@H](Cc1cccnc1)C(=O)O; 2Thi = N[C@@H](Cc1cccs1)C(=O)O

Assay: Inhibition of [3H]- DPDPE binding to delta opioid receptor of guinea pig brain

Compound | Ki
Cc1ccc(C[C@H](NC(=O)[C@H](C)NC(=O)[C@@H](N)Cc2ccc(O)cc2)C(=O)N[C@@H](CC(=O)O)C(=O)N[C@H](C(=O)N[C@H](C(=O)NCC(N)=O)C(C)C)C(C)C)cc1 [(S)-3-((S)-2-{(S)-2-[(S)-2-Amino-3-(4-hydroxy-phenyl)-propionylamino]-propionylamino}-3-p-tolyl-propionylamino)-N-{(S)-1-[(S)-1-(carbamoylmethyl-carbamoyl)-2-methyl-propylcarbamoyl]-2-methyl-propyl}-succinamic acid] | 2650 nM
CC(C)[C@H](NC(=O)[C@H](CC(=O)O)NC(=O)[C@H](Cc1c(F)c(F)c(F)c(F)c1F)NC(=O)[C@H](C)NC(=O)[C@@H](N)Cc1ccc(O)cc1)C(=O)N[C@H](C(=O)NCC(N)=O)C(C)C [(S)-3-((S)-2-{(S)-2-[(S)-2-Amino-3-(4-hydroxy-phenyl)-propionylamino]-propionylamino}-3-pentafluorophenyl-propionylamino)-N-{(S)-1-[(S)-1-(carbamoylmethyl-carbamoyl)-2-methyl-propylcarbamoyl]-2-methyl-propyl}-succinamic acid] | 135 nM
Cc1c(C)c(C)c(C[C@H](NC(=O)[C@H](C)NC(=O)[C@@H](N)Cc2ccc(O)cc2)C(=O)N[C@@H](CC(=O)O)C(=O)N[C@H](C(=O)N[C@H](C(=O)NCC(N)=O)C(C)C)C(C)C)c(C)c1C [(S)-3-((S)-2-{(S)-2-[(S)-2-Amino-3-(4-hydroxy-phenyl)-propionylamino]-propionylamino}-3-pentamethylphenyl-propionylamino)-N-{(S)-1-[(S)-1-(carbamoylmethyl-carbamoyl)-2-methyl-propylcarbamoyl]-2-methyl-propyl}-succinamic acid] | 10000 nM
CC(C)[C@H](NC(=O)[C@H](CC(=O)O)NC(=O)[C@H](Cc1ccccn1)NC(=O)[C@H](C)NC(=O)[C@@H](N)Cc1ccc(O)cc1)C(=O)N[C@H](C(=O)NCC(N)=O)C(C)C [(S)-3-((S)-2-{(S)-2-[(S)-2-Amino-3-(4-hydroxy-phenyl)-propionylamino]-propionylamino}-3-pyridin-2-yl-propionylamino)-N-{(S)-1-[(S)-1-(carbamoylmethyl-carbamoyl)-2-methyl-propylcarbamoyl]-2-methyl-propyl}-succinamic acid] (H-YA[2Pal]DVVG-NH2) | 62 nM
CC(C)[C@H](NC(=O)[C@H](CC(=O)O)NC(=O)[C@H](Cc1cccnc1)NC(=O)[C@H](C)NC(=O)[C@@H](N)Cc1ccc(O)cc1)C(=O)N[C@H](C(=O)NCC(N)=O)C(C)C [(S)-3-((S)-2-{(S)-2-[(S)-2-Amino-3-(4-hydroxy-phenyl)-propionylamino]-propionylamino}-3-pyridin-3-yl-propionylamino)-N-{(S)-1-[(S)-1-(carbamoylmethyl-carbamoyl)-2-methyl-propylcarbamoyl]-2-methyl-propyl}-succinamic acid] (H-YA[3Pal]DVVG-NH2) | 50 nM
CC(C)[C@H](NC(=O)[C@H](CC(=O)O)NC(=O)[C@H](Cc1cscn1)NC(=O)[C@H](C)NC(=O)[C@@H](N)Cc1ccc(O)cc1)C(=O)N[C@H](C(=O)NCC(N)=O)C(C)C [(S)-3-((S)-2-{(S)-2-[(S)-2-Amino-3-(4-hydroxy-phenyl)-propionylamino]-propionylamino}-3-thiazol-4-yl-propionylamino)-N-{(S)-1-[(S)-1-(carbamoylmethyl-carbamoyl)-2-methyl-propylcarbamoyl]-2-methyl-propyl}-succinamic acid] (H-YA[Ala(4-thiazolyl)]DVVG-NH2) | 40 nM
CC(C)[C@H](NC(=O)[C@H](CC(=O)O)NC(=O)[C@H](Cc1cccs1)NC(=O)[C@H](C)NC(=O)[C@@H](N)Cc1ccc(O)cc1)C(=O)N[C@H](C(=O)NCC(N)=O)C(C)C [(S)-3-((S)-2-{(S)-2-[(S)-2-Amino-3-(4-hydroxy-phenyl)-propionylamino]-propionylamino}-3-thiophen-2-yl-propionylamino)-N-{(S)-1-[(S)-1-(carbamoylmethyl-carbamoyl)-2-methyl-propylcarbamoyl]-2-methyl-propyl}-succinamic acid] (H-YA[2Thi]DVVG-NH2) | 1.4 nM
CC(C)[C@H](NC(=O)[C@H](CC(=O)O)NC(=O)[C@H](Cc1cccc(F)c1)NC(=O)[C@H](C)NC(=O)[C@@H](N)Cc1ccc(O)cc1)C(=O)N[C@H](C(=O)NCC(N)=O)C(C)C [(S)-3-[(S)-2-{(S)-2-[(S)-2-Amino-3-(4-hydroxy-phenyl)-propionylamino]-propionylamino}-3-(3-fluoro-phenyl)-propionylamino]-N-{(S)-1-[(S)-1-(carbamoylmethyl-carbamoyl)-2-methyl-propylcarbamoyl]-2-methyl-propyl}-succinamic acid] | 73.6 nM
CC(C)[C@H](NC(=O)[C@H](CC(=O)O)NC(=O)[C@H](Cc1ccc(F)cc1)NC(=O)[C@H](C)NC(=O)[C@@H](N)Cc1ccc(O)cc1)C(=O)N[C@H](C(=O)NCC(N)=O)C(C)C [(S)-3-[(S)-2-{(S)-2-[(S)-2-Amino-3-(4-hydroxy-phenyl)-propionylamino]-propionylamino}-3-(4-fluoro-phenyl)-propionylamino]-N-{(S)-1-[(S)-1-(carbamoylmethyl-carbamoyl)-2-methyl-propylcarbamoyl]-2-methyl-propyl}-succinamic acid] | 703 nM
H-YAHDVVG-NH2 [(S)-3-[(S)-2-{(S)-2-[(S)-2-Amino-3-(4-hydroxy-phenyl)-propionylamino]-propionylamino}-3-(3H-imidazol-4-yl)-propionylamino]-N-{(S)-1-[(S)-1-(carbamoylmethyl-carbamoyl)-2-methyl-propylcarbamoyl]-2-methyl-propyl}-succinamic acid] | 317 nM
